Broadly, the IC50 is the concentration at which inhibition is half-maximal. A higher IC50 goes with weaker potency.

The text below walks through data of patent US9045486B2, “Pyrimidone derivatives and their use in the treatment, amelioration or prevention of a viral disease” (priority 2013, dated 2015).

This assay has as its target T1, influenza A virus (IAV) PA-Nter fragment (amino acids 1-209) (Influenza A virus, UniProt P31343).
T1 construct: PA-Nter fragment (amino acids 1-209); made in house
The assay can be described thus: FRET endonuclease activity assay. To be noted: 0.5 μM PA-Nter, 1.6 μM dual-labelled RNA substrate; IC50 from initial reaction velocities (v0). Format: biochemical.
`CC(C)N1CCn2c(Cc3ccc(Cl)cc3-c3cccc(F)c3)nc(=O)c(O)c2C1=O` came in with an IC50 of 58 nM.

Take `CC(C)N1CCn2c(Cc3c(Cl)cccc3Cl)nc(=O)c(O)c2C1=O` [drawing 10]: the 50% inhibitory concentration (IC50) turned out to be 392 nM. This IC50 lies about 6.8-fold higher than the previous one.

`CC(C)N1CCn2c(Cc3c(Cl)cccc3Cl)nc(=O)c(O)c2C1=O` [drawing 18] had an IC50 of 390 nM.

On to `O=C1NCCn2c(CC3(c4cccc5ccccc45)CCCC3)nc(=O)c(O)c21` [drawing 712], for which the IC50 stood at 162 nM. This IC50 is about 2.4-fold lower than that of the compound before.

Take `O=C1NCCn2c(CC3(c4cccc5ccccc45)CCCC3)nc(=O)c(O)c21` [drawing 722]: the concentration for half-maximal inhibition (IC50) was determined as 160 nM.
